The nature of data set [1]: In vitro dissolution in distilled water (UPLC). It is filed as physicochemical. The following applies: 37.0 °C, 100 rpm. As for the experimental part: The wogonin, physical mixture of wogonin and aloperine (Wog+Alop), and Wog-Alop with the theoretical drug content of 6.00 mg were accurately weighed and placed into 200 mL conical flasks containing 90 mL of distilled water at 37.0 °C and 100 rpm. A total of 2 mL of sample solution was withdrawn at predetermined time points (0, 1, 2, 3, 4, 5, 6, 7, 8, 9, 10, 15, 30, 45, and 60 min) and an equal volume of distilled water was immediately supplemented. The sample solutions were filtered through a 0.22 μm microporous membrane and determined by Ultra Performance Liquid Chromatography (UPLC).

Data set [2] is described as follows: Pharmacokinetic study after intragastric administration. Format: in vivo. The conditions noted are these: male, Sprague-Dawley, rat, po, rats, 5 mg/kg as wogonin, plasma. Here is the method: Four-week-old male SPF Sprague-Dawley rats (weighing 220 ± 10 g) were purchased from Sporford Biotechnology Co., Ltd. (Beijing, China). and were randomly divided into cages (four rats per cage) and acclimatized for at least three days with free access to food and water. This study was performed with the approval of the Ethics Review Committee for Laboratory Animals of Beijing University of Chinese Medicine (approval number: BUCM-2023032307-1148) and strictly adhered to the relevant guidelines. Laboratory animal license No.: SCXK (Jing) 2019-0010; Laboratory unit use license No.: SYXK (Jing) 2020-0033.
Twenty-four SD rats were randomly divided into three groups of eight rats each. After 3 days of adaptive feeding, they were fasted (free access to water) for 12 h. On the morning of the fourth day, wogonin, Wog+Alop, and Wog-Alop were intragastrically administered at a theoretical dose of 5 mg/kg for wogonin. Plasma samples were collected into heparinized tubes from the oculi choroideae vein at 0, 5, 10, 15, 30, 45, and 60 min and 2, 4, 6, 8, 12, 24, 32, and 48 h after administration. Plasma samples were separated by centrifugation and stored at −80 °C until determination. Ultra-Performance Liquid Chromatography-Tandem Triple Quadrupole Mass Spectrometry (UPLC-QQQ-MS) multi-response monitoring (MRM) mode was used to determine plasma samples, and Masslynx 4.1 was used to calculate plasma drug concentrations at each collection time point. The plasma concentration versus time plots were drawn, and the pharmacokinetic parameters were calculated by DAS 2.1 software. The relative oral bioavailability (RB) was calculated using the following formula: […]

In data set [3] the test system is monocrotaline (MCT)-induced PH rats. Nature of the data set: Anti-pulmonary hypertension pharmacodynamics. It is filed as in vivo, Sprague-Dawley rats. As for the experimental part:
Four-week-old male SPF Sprague-Dawley rats (weighing 220 ± 10 g) were purchased from Sporford Biotechnology Co., Ltd. (Beijing, China). and were randomly divided into cages (four rats per cage) and acclimatized for at least three days with free access to food and water.
Anti-PH pharmacodynamics were carried out using monocrotaline (MCT)-induced PH rats. Thirty rats were randomly divided into five groups: (A) control group; (B) model group; and three treatment groups (C) Wog group; (D) Wog+Alop group; and (E) Wog-Alop group. MCT was administered by a single femoral vein injection to induce PH. All administered groups of drugs were intragastrically administered from days 1 to 21 at a theoretical dose of 5 mg/kg/day for Wog. After three weeks of administration, the rats were weighed and anesthetized with 20% urethane. The electrocardiogram and right ventricular systolic pressure (RVSP) of rats were measured. The rats were perfused, and the heart and lung tissues were completely removed. The right ventricle (RV) and left ventricle plus ventricular septum (LV + S) were accurately separated and weighted, and the right ventricular hypertrophy index (RVHI) = RV/(LV + S) × 100%, RV mass index (RVMI) = RV/body weight × 100% and lung mass index (LMI) = lung weight/body weight × 100% were calculated. […] Heart tissues were taken for H&E and Masson staining, and lung tissues were stained with resorcinol basic fuchsin and proliferating cell nuclear antigen (PCNA) immunofluorescence.

Data set [4] deals with PDGF-BB-induced PASMCs. Nature of the data set: Cell viability (CCK-8) assay, abnormal proliferation. Format: cell-based, Human. The conditions noted are these: 3 μM, 40 ng/mL PDGF-BB for 48 h, CCK-8, vs. model group. Here is the method:
Human PASMCs ([…], Cat. No.: CYH0707) were purchased from Wuhan Enji Life Technology Co., Ltd. (Wuhan, China) […] were cultured in Dulbecco's Modified Eagle Medium (DMEM) medium with 10% fetal bovine serum (FBS) and 1% penicillin/streptomycin (P/S), and maintained in a humidified 5% CO2 incubator at 37 °C. Prior to drug treatment, […] were subjected to serum starvation by culturing in a maintenance medium containing 0.5% FBS for 24 h to synchronize cell cycle progression. […] After 1 h, cells were stimulated with 40 ng/mL PDGF-BB for 48 h in each group except the control group. Cell viability was assessed using the Cell Counting Kit-8 (CCK-8) assay according to the manufacturer's protocol. Briefly, 10 μL of CCK-8 reagent was added to each well of pretreated PASMCs, followed by incubation at 37 °C under 5% CO2 for 2-h. The absorbance of each sample was quantified at 450 nm using a microplate reader.

Data set [5] concerns PDGF-BB-induced PASMCs. The experiment in a line: ROS detection (DCFH-DA probe). Format: cell-based, Human. The conditions noted are these: 3 μM, 40 ng/mL PDGF-BB for 48 h, DCFH-DA fluorescence, vs. model group. As for the experimental part: Human PASMCs ([…], Cat. No.: CYH0707) were purchased from Wuhan Enji Life Technology Co., Ltd. (Wuhan, China) […] were cultured in Dulbecco's Modified Eagle Medium (DMEM) medium with 10% fetal bovine serum (FBS) and 1% penicillin/streptomycin (P/S), and maintained in a humidified 5% CO2 incubator at 37 °C. Prior to drug treatment, […] were subjected to serum starvation by culturing in a maintenance medium containing 0.5% FBS for 24 h to synchronize cell cycle progression. […] After 1 h, cells were stimulated with 40 ng/mL PDGF-BB for 48 h in each group except the control group. […] After treatment, cells were loaded with 1 μM 2',7'-dichlorodihydrofluorescein diacetate (DCFH-DA) probe for 20 min at 37 °C in the dark. Nuclei were counterstained with Hoechst 33342 Live Cells Staining Solution (1:100 dilution) for 10 min. Fluorescent imaging was performed using a laser scanning confocal microscope (Leica TCS SP8, Wetzlar, Germany) with excitation/emission settings at 488/525 nm for DCFH-DA and 350/461 nm for Hoechst 33342. ROS-associated fluorescence intensity was quantified using ImageJ 4.4 software.

The subject of data set [6] is PDGF-BB-induced PASMCs. Nature of the data set: Measurement of oxidative stress markers (MDA, GSH, CAT, GPx kits). Format: cell-based, Human. The conditions noted are these: 3 μM, vs. model group. As for the experimental part:
Human PASMCs ([…], Cat. No.: CYH0707) were purchased from Wuhan Enji Life Technology Co., Ltd. (Wuhan, China) […] were cultured in Dulbecco's Modified Eagle Medium (DMEM) medium with 10% fetal bovine serum (FBS) and 1% penicillin/streptomycin (P/S), and maintained in a humidified 5% CO2 incubator at 37 °C. Prior to drug treatment, […] were subjected to serum starvation by culturing in a maintenance medium containing 0.5% FBS for 24 h to synchronize cell cycle progression. […] After 1 h, cells were stimulated with 40 ng/mL PDGF-BB for 48 h in each group except the control group. The levels of MDA and glutathione (GSH), as well as the activities of CAT and glutathione peroxidase (GPx) in cells, were measured using commercial assay kits. The treated PASMCs were collected and lysed with protein lysis buffer following the manufacturer's instructions.

Where [7] appears, read: intragastric 5 mg/kg/day as Wog, days 1 to 21, vs. model group.

SMILES strings stand for the structures.

Regarding `COc1c(O)cc(O)c2c(=O)cc(-c3ccccc3)oc12` [Wogonin], the percentage of dissolution in data set [1] is 2.17%. Also, in data set [2] (n = 8), the AUC(0-inf) came out at 77 ± 80.6 ng·h/mL, the exposure AUC(0-t) amounted to 49.1 ± 42.1 ng·h/mL, the concentration peaked (Cmax) at 14.8 ± 12.2 ng/mL and the Tmax was determined as 1.93 ± 3.41 h. In data set [2] (n = 8, read-out: MRT(0–t)), the MRT last was determined as 5.97 ± 4.79 h. In addition, the MRT inf in data set [2] (n = 8, read-out: MRT(0–∞)) was 12.5 ± 17.5 h. Moreover, the half-life in data set [2] (n = 8, read-out: t1/2z (converted)) was 7.21 ± 9.97 h. Also, the “thickening of the medial wall of small pulmonary artery vessels” value in data set [3] (5 mg/kg/day as Wog, 21 days, resorcinol basic fuchsin staining, vs. model group) is listed as “inhibit the thickening”. Further, in data set [3] (setting [7]), the P-wave duration entry is recorded as “significantly reduce”; the “RVHI (right ventricular hypertrophy index)” value was “not statistically significant”; the “RVMI (RV mass index)” value is “not statistically significant”; the “RVSP (right ventricular systolic pressure)” value was “reduced RVSP, although without statistical significance”. Further, in the data set with PDGF-BB-induced PASMCs [4], the “inhibition of abnormal proliferation of PDGF-BB-induced PASMC” value was “almost no inhibitory effects”. Further, the ROS levels entry with PDGF-BB-induced PASMCs [5] is recorded as “Neither Wog nor Alop alone showed notable inhibitory effects”. Also, in the data set on PDGF-BB-induced PASMCs [6], the “increase in MDA levels” value is given as “significantly inhibited”, the “reduction in CAT activity” value was “significantly inhibited”, the “reduction in GPx activity” value was “significantly inhibited” and the “reduction in GSH levels” value is “significantly inhibited”.
For `C1=C2CCCN[C@H]2[C@@H]2C[C@H]1[C@H]1CCCCN1C2` [Alop, aloperine], in data set [3] (setting [7]), the P-wave duration entry is listed as “significantly reduce”, the “RVHI (right ventricular hypertrophy index)” value is given as “not statistically significant” and the “RVMI (RV mass index)” value was “not statistically significant”. The “inhibition of abnormal proliferation of PDGF-BB-induced PASMC” value in the data set on PDGF-BB-induced PASMCs [4] is listed as “almost no inhibitory effects”. The ROS levels result in the data set with PDGF-BB-induced PASMCs [5] is “Neither Wog nor Alop alone showed notable inhibitory effects”. In the data set with PDGF-BB-induced PASMCs [6], the “increase in MDA levels” value is reported as “significantly inhibited”, the “reduction in CAT activity” value is “significantly inhibited”, the “reduction in GPx activity” value was “significantly inhibited” and the “reduction in GSH levels” value is listed as “significantly inhibited”.

The term AUC(0-inf) denotes the area under the concentration-time curve extrapolated to infinity. A low value points to low exposure. As usually defined, the AUC(0-t) is exposure summed from dosing to a finite time, without extrapolation to infinity. A high value points to more exposure. The Cmax is the highest concentration seen after dosing. As a reminder, the Tmax is the time at which the peak concentration occurs.

Source of the values: paper PMC12196166, “Mechanistic Insight into the Enhanced Anti-Pulmonary Hypertension Efficacy of Wogonin Co-Amorphous” (Pharmaceutics, 2025).
